Results on 20 compounds are retold here after PubChem BioAssay AID330 (DTP/NCI, 2004).

The test concerns P388 leukemia ip, CD2F1 mice, survival T/C. The experiment in a line: NCI In Vivo Anticancer Drug Screen. Data for tumor model P388 Leukemia (intraperitoneal) in CD2F1 (CDF1) mice. Particulars: endpoint: median survival time, higher = longer survival. The gist of the method:
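Mice carrying the transplanted tumor received test compound or vehicle. Survival was recorded in each group, and the value is the treated-group measurement divided by that of the vehicle-treated control group.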

Setting [1] is: dose: 100.0 mg/kg/injection, schedule: Q04DX003 (ip), vehicle: saline.
[2] abbreviates: dose: 50.0 mg/kg/injection, schedule: Q01DX005 (ip), vehicle: Klucel (hydroxypropylcellulose) (HPC).
Where [3] appears, read: dose: 100.0 mg/kg/injection, schedule: Q01DX005 (ip), vehicle: Klucel (hydroxypropylcellulose) (HPC).
Where [4] appears, read: dose: 200.0 mg/kg/injection, schedule: Q01DX005 (ip), vehicle: Klucel (hydroxypropylcellulose) (HPC).
Where [5] appears, read: dose: 12.5 mg/kg/injection, schedule: Q01DX009 (ip), vehicle: Klucel (hydroxypropylcellulose) (HPC).
Setting [6] is: dose: 25.0 mg/kg/injection, schedule: Q01DX009 (ip), vehicle: Klucel (hydroxypropylcellulose) (HPC).
Setting [7] is: dose: 50.0 mg/kg/injection, schedule: Q01DX009 (ip), vehicle: Klucel (hydroxypropylcellulose) (HPC).
[8] abbreviates: dose: 60.0 mg/kg/injection, schedule: Q01DX005 (ip), vehicle: saline with Tween-80.
Setting [9] is: dose: 120.0 mg/kg/injection, schedule: Q01DX005 (ip), vehicle: saline with Tween-80.
Where [10] appears, read: dose: 240.0 mg/kg/injection, schedule: Q01DX005 (ip), vehicle: saline with Tween-80.
Where [11] appears, read: dose: 50.0 mg/kg/injection, schedule: Q01DX005 (ip), vehicle: saline with Tween-80.
Setting [12] is: dose: 100.0 mg/kg/injection, schedule: Q01DX005 (ip), vehicle: saline with Tween-80.

“And” between values parts separate entries of the source, which are not always exact repeats. Identical values can stand only once. Toxic doses and inconclusive results are not listed.

With `CSC(=NS(=O)(=O)c1ccc(C)cc1)SC`, the T/C is, setting by setting: (dose: 50.0 mg/kg/injection, schedule: Q01DX009 (ip), vehicle: saline) 109 % of control; (dose: 100.0 mg/kg/injection, schedule: Q01DX009 (ip), vehicle: saline) 106 % of control; (dose: 200.0 mg/kg/injection, schedule: Q01DX009 (ip), vehicle: saline) 113 % of control.
As to `Cc1ccc(C)c(C2NC(=O)c3ccccc3N2)c1` (stereo not given), the T/C (dose: 25.0 mg/kg/injection, schedule: Q01DX009 (ip), vehicle: saline with Tween-80) is 104 % of control; the T/C (dose: 50.0 mg/kg/injection, schedule: Q01DX009 (ip), vehicle: saline with Tween-80) is 104 % of control; the T/C (dose: 100.0 mg/kg/injection, schedule: Q01DX009 (ip), vehicle: saline with Tween-80) is 101 % of control; the T/C (dose: 200.0 mg/kg/injection, schedule: Q01DX009 (ip), vehicle: saline with Tween-80) is 112 % of control.
With `Cc1ccccc1C(=O)Nc1ccccc1-c1ccccc1N`, the T/C reads like this: (dose: 25.0 mg/kg/injection, schedule: Q04DX003 (ip), vehicle: saline) 95 % of control; (dose: 50.0 mg/kg/injection, schedule: Q04DX003 (ip), vehicle: saline) 99 % of control; under setting [1], 90 % of control and 91 % of control.
As to `Cc1ccc(N2CC=C(c3ccccc3)OP2(=O)N2CC2)cc1` (stereo not given), the T/C runs as follows: under setting [2], 101 % of control; under setting [3], 101 % of control; under setting [4], 94 % of control.
As for `[N-]=[N+]=Nc1ccc(Nc2c3ccccc3nc3ccccc23)cc1`, the T/C under setting [5] was 112 % of control and 98 % of control; the T/C under setting [6] was 101 % of control and 114 % of control; the T/C under setting [7] was 117 % of control and 122 % of control.
On to `O=C(NC(Cc1ccc(Cl)cc1)C(=O)O)c1cccc(Br)c1` (stereo not given), for which the T/C under setting [2] is 102 % of control, the T/C under setting [3] is 100 % of control and the T/C under setting [4] is 110 % of control.
For the compound `CC#CC#C/C(=C/C=CC(=O)OC)SC`, the T/C reads like this: under setting [5], 110 % of control; under setting [6], 106 % of control; under setting [7], 101 % of control; (dose: 100.0 mg/kg/injection, schedule: Q01DX009 (ip), vehicle: Klucel (hydroxypropylcellulose) (HPC)) 104 % of control.
With `C/C=C(\C)C(=O)O[C@@H]1[C@H]2C(C)=CC(=O)[C@@H](O)[C@]2(C)[C@H]2[C@@]3(O)OC[C@@]24[C@@H]1OC(=O)C[C@H]4[C@@H](C)[C@H]3O`, the T/C is, setting by setting: (dose: 0.25 mg/kg/injection, schedule: Q01DX009 (ip), vehicle: other) 111 % of control; (dose: 0.6 mg/kg/injection, schedule: Q01DX009 (ip), vehicle: other) 163 % of control.
Regarding `O=C(NCCCl)Nc1[nH]c(=O)ncc1Cl`, the T/C runs as follows: under setting [8], 103 % of control; under setting [9], 100 % of control; under setting [10], 101 % of control.
In the case of `CCn1cc(C(=O)O)c(=O)c2nc(S(C)=O)sc21` (stereo not given), the T/C is, setting by setting: (dose: 15.0 mg/kg/injection, schedule: Q01DX005 (ip), vehicle: saline with Tween-80) 103 % of control; (dose: 30.0 mg/kg/injection, schedule: Q01DX005 (ip), vehicle: saline with Tween-80) 108 % of control; under setting [8], 123 % of control and 97 % of control.
For the compound `NNc1ccc2nnc(Cl)n2n1`, the T/C runs as follows: (dose: 100.0 mg/kg/injection, schedule: Q04DX002 (ip), vehicle: saline) 101 % of control; (dose: 200.0 mg/kg/injection, schedule: Q04DX002 (ip), vehicle: saline) 102 % of control; (dose: 400.0 mg/kg/injection, schedule: Q04DX002 (ip), vehicle: saline) 108 % of control.
As to `Nc1ccc(S(=O)(=O)Nc2ccccc2O)cc1`, the T/C is, setting by setting: (dose: 3.12 mg/kg/injection, schedule: Q01DX001 (ip), vehicle: saline with Tween-80) 99 % of control; (dose: 6.25 mg/kg/injection, schedule: Q01DX001 (ip), vehicle: saline with Tween-80) 106 % of control; (dose: 12.5 mg/kg/injection, schedule: Q01DX001 (ip), vehicle: saline with Tween-80) 97 % of control; (dose: 25.0 mg/kg/injection, schedule: Q01DX001 (ip), vehicle: saline with Tween-80) 94 % of control; (dose: 50.0 mg/kg/injection, schedule: Q01DX001 (ip), vehicle: saline with Tween-80) 100 % of control.
On to `CC1(C)OC(=O)C=C1Sc1ccccc1`, for which the T/C is 100 % of control under setting [11]; 105 % of control under setting [12]; 105 % of control (dose: 200.0 mg/kg/injection, schedule: Q01DX005 (ip), vehicle: saline with Tween-80).
Turning to `CN(Cc1cnc2nc(N)nc(N)c2n1)c1c(Cl)cc(C(=O)NC(CCC(=O)O)C(=O)O)cc1Cl` (stereo not given), the T/C by setting is: (dose: 25.0 mg/kg/injection, schedule: Q01DX005 (ip), vehicle: suspension in saline) 158 % of control; (dose: 25.0 mg/kg/injection, schedule: Q01DX005 (iv), vehicle: suspension in saline) 119 % of control; (dose: 50.0 mg/kg/injection, schedule: Q01DX005 (ip), vehicle: suspension in saline) 169 % of control; (dose: 100.0 mg/kg/injection, schedule: Q01DX005 (ip), vehicle: suspension in saline) 178 % of control; (dose: 100.0 mg/kg/injection, schedule: Q01DX005 (iv), vehicle: suspension in saline) 165 % of control; (dose: 100.0 mg/kg/injection, schedule: Q04DX003 (ip), vehicle: saline with Tween-80) 195 % of control. For the same compound, the T/C runs as follows: (dose: 200.0 mg/kg/injection, schedule: Q01DX005 (ip), vehicle: suspension in saline) 190 % of control; (dose: 200.0 mg/kg/injection, schedule: Q04DX003 (ip), vehicle: saline with Tween-80) 222 % of control; (dose: 264.0 mg/kg/injection, schedule: Q04DX003 (ip), vehicle: saline with Tween-80) 245 % of control; (dose: 400.0 mg/kg/injection, schedule: Q04DX003 (ip), vehicle: saline with Tween-80) 109 % of control and 240 % of control; (dose: 600.0 mg/kg/injection, schedule: Q04DX003 (ip), vehicle: saline with Tween-80) 259 % of control.
Consider `NS(=O)(=O)c1ccc(NCc2cnc3ccccc3c2)cc1`, for which the T/C is 94 % of control (dose: 5.0 mg/kg/injection, schedule: Q01DX009 (ip), vehicle: saline); 88 % of control (dose: 10.0 mg/kg/injection, schedule: Q01DX009 (ip), vehicle: saline); 98 % of control (dose: 20.0 mg/kg/injection, schedule: Q01DX009 (ip), vehicle: saline).
Regarding `C[CH2][Ge]([CH2]C)[O][Ge]([CH2]C)[CH2]C.c1cc[c]([Ge]([c]2ccccc2)[c]2ccccc2)cc1.c1cc[c]([Ge]([c]2ccccc2)[c]2ccccc2)cc1`, the T/C by setting is: under setting [8], 88 % of control; under setting [9], 98 % of control; under setting [10], 98 % of control.
As to `O=C1OCCOCCOCCOCCOC1=O`, the T/C runs as follows: under setting [1], 96 % of control; (dose: 200.0 mg/kg/injection, schedule: Q04DX003 (ip), vehicle: saline) 101 % of control; (dose: 400.0 mg/kg/injection, schedule: Q04DX003 (ip), vehicle: saline) 104 % of control.
Turning to `Cc1ccc(OP(=O)(Oc2ccc(C)cc2)Oc2ccc(C)cc2)cc1.Cc1ccc(OP(=O)(Oc2ccc(C)cc2)Oc2ccc(C)cc2)cc1.Cc1ccc(OP(=O)(Oc2ccc(C)cc2)Oc2ccc(C)cc2)cc1.Cc1ccc(OP(=O)(Oc2ccc(C)cc2)Oc2ccc(C)cc2)cc1.[Fe+2].[O-][Cl+3]([O-])([O-])O`, the T/C is, setting by setting: (dose: 50.0 mg/kg/injection, schedule: Q01DX001 (ip), vehicle: Klucel (hydroxypropylcellulose) (HPC)) 99 % of control; (dose: 100.0 mg/kg/injection, schedule: Q01DX001 (ip), vehicle: Klucel (hydroxypropylcellulose) (HPC)) 96 % of control; (dose: 200.0 mg/kg/injection, schedule: Q01DX001 (ip), vehicle: Klucel (hydroxypropylcellulose) (HPC)) 99 % of control.
In the case of `O=C(O)CSCc1cc2c3ccccc3sc2c2ccccc12`, the T/C by setting is: (dose: 60.0 mg/kg/injection, schedule: Q01DX005 (ip), vehicle: Klucel (hydroxypropylcellulose) (HPC)) 100 % of control; (dose: 120.0 mg/kg/injection, schedule: Q01DX005 (ip), vehicle: Klucel (hydroxypropylcellulose) (HPC)) 93 % of control; (dose: 240.0 mg/kg/injection, schedule: Q01DX005 (ip), vehicle: Klucel (hydroxypropylcellulose) (HPC)) 96 % of control.
Turning to `O=[N+]([O-])c1cccc2c(-c3nccc4c([N+](=O)[O-])cccc34)nccc12`, the T/C is 87 % of control under setting [11] and 87 % of control under setting [12].
